What was measured:
[1] = Fluorescence stability (decomposition) in aqueous solution; type: physicochemical; settings: PBS with 1% DMSO, 37° C., 48 h, from 100%
Method: (FIG. 2B) 5TGM1 cells were treated with DMSO or with 20 μM 2, 4, 3, or 7 dissolved in DMSO for 3 days and subjected to XTT assays. Percentages of growth were determined by comparing treated groups with control groups (DMSO). Each data point derived from four independent groups receiving exactly the same treatment was plotted as mean±SD. Results are representative of three independent experiments. […] The values of I/I0 were plotted as a function of time and shown in the inset. I0 was the initial fluorescence intensity of 4 at 0 h. […] The values of I/I0 were plotted as a function of time and shown in the inset. I0 was the initial fluorescence intensity of 5 at 0 h. […] (FIG. 2G) The decomposition rates of 7 and 8 were plotted as a function of time in RPMI media incubated at 37° C. Aliquots were analyzed by HPLC and the peaks integrated.
FIGS. 5A-5J illustrate the finding that installation of a boronate cage cleavable by H2O2 stabilizes the 1,3-dioxane acetal protective group of D-F07 to allow for temporal inhibition of XBP-1s upon contact with H2O2. (FIG. 5A) A scheme showing that installation of a boronate-caged group stabilizes the 1,3-dioxane acetal protective group to allow for H2O2-mediated release of intact D-F07. (FIG. 5B) The fluorescence of BC-D-F07a (2.5 μM in the DMSO/PBS solution (v/v=1:99), Ex=360 nm) increases upon incubation with 0 to 200 μM hydrogen peroxide at room temperature for 1 h. (FIG. 5C) The fluorescence of BC-D-F07b (2.5 μM in the DMSO/PBS solution (v/v=1:99), Ex=360 nm) increases upon incubation with 0 to 2 mM hydrogen peroxide at 37° C. for 1 h. […] I0 was the initial fluorescence intensity of D-F07, BC-D-F07a or BC-D-F07b at 0 h. (FIG. 5E) The levels of hydrogen peroxide produced by 5TGM1, 72-h LPS-stimulated primary CLL, MEC2, and WaC3 cells were measured by Amplex Red with or without the addition of extracellular catalase (500 U/mL). (FIG. 5F) 5TGM1 cells were treated with BC-D-F07a at increasing concentrations for 24 h, lysed, and analyzed for the expression of indicated proteins by immunoblots. (FIG. 5G) CD5+ CLL cells purified from spleens of Eμ-TCL1 mice were stimulated with […], subsequently treated with BC-D-F07a at 20 μM for 16 h, and then incubated with hydrogen peroxide at indicated concentrations for another 4 h. Cells were lysed and analyzed for the expression of indicated proteins by immunoblots. […] Cells were lysed and analyzed for the expression of indicated proteins by immunoblots. […] Percentages of growth were determined by comparing treated groups with control groups (DMSO). […]
UV-vis and fluorescence spectra were carried out on a BioTek SYNERGY™ NEO2 instrument (96 well plate).

[2] = test system: MEC2 cells; settings: cited from earlier work

fluorescence intensity remaining (decomposition) [1]: 5.1%
Structure (SMILES): O=c1oc2c(C3OCCCO3)c(O)ccc2c2c1CNCC2 [Compound 4, 7-(1,3-dioxan-2-yl)-8-hydroxy-1,2,3,4-tetrahydro-5H-chromeno[3,4-c]pyridin-5-one]
sensitivity of MEC2 cells [2]: less sensitive

From patent US11833137B2, “Substituted chromenones, IRE1 inhibitors, and methods of using same” (The Wistar Institute, priority 2018, dated 2023)
